Assay [1] has as its target T1, PSMA-expressing C4-2 cells (Homo sapiens, UniProt Q04609).
T1 construct: PSMA-expressing C4-2 cells (ATCC, Cat. No. CRL-3314) were cultured in RPMI-1640; host or cells: C4-2 cells
The assay can be described thus: FACS binding assay (competition with 50 nM PSM-0183). The following applies: C4-2 cells, read-out: pIC50 [C4-2] CAT (converted). The procedure, abridged:
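Competition format: fluorescent tracer PSM-0183 (50 nM) displaced from PSMA on C4-2 cells by a test compound titration over 1 h at 4 °C. Bound tracer was quantified as flow-cytometric AF488 median fluorescence after washing. Four-parameter logistic fits of MFI data gave IC50 and pIC50.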
Background: Flow cytometry measures light scatter and fluorescence of single cells or particles in a stream.

Assay [2] concerns the target T2, Fc-fusion protein of human PSMA (hPSMA-Fc) (Homo sapiens, UniProt Q04609).
T2 construct: purchased Acro Biosystems PSA-H5264
Briefly: Surface plasmon resonance assay (Biacore T200, single cycle kinetic). It is filed as binding. The note with it: read-out: pKD CAT (converted). The procedure, abridged:
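KD, expressed as pKD, came from 1:1 Langmuir fits of reference- and buffer-blank-subtracted SPR data. The runs were single-cycle kinetics at 25° C in HBST/0.1% DMSO over human PSMA-Fc, captured to ~1000 RU on a peptide-coated CM5 surface and regenerated with 10 mM glycine pH 1.5.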

The mark [3] stands for this setting: FACS binding, competition with 50 nM PSM-0183, category.
Where [4] appears, read: SPR, hPSMA-Fc, single cycle kinetic, 25° C., category.

Like-named read-outs stand apart in the source and are kept apart here. Numbered stars: 1 amine (or outer) side, 2 acyl side, 3 side chain; on linkers, the order of the positions; unused ones are H or OH. Bridge positions count the residues as written; N and C are the ends. Square brackets hold non-standard residues; d marks the D form. Peptide text beside a SMILES is read from it. * marks the point of attachment. DOTA = O=C(O)CN1CCN(CC(=O)O)CCN(CC(=O)*)CCN(CC(=O)O)CC1; Arg(Me2a) = CN(C)C(=N)NCCC[C@H](N)C(=O)O; Phe(4-Cl) = N[C@@H](Cc1ccc(Cl)cc1)C(=O)O; Ethylenediamine = C(CN[*:2])N[*:1]; X1 = O=C(CC1CCN([*:1])CC1)[*:2]; Lys(Me) = CNCCCC[C@H](N)C(=O)O; Tle = CC(C)(C)[C@H](N)C(=O)O; Nle = CCCC[C@H](N)C(=O)O; Deg = CCC(N)(CC)C(=O)O; Aib = CC(C)(N)C(=O)O

T2 sequence (Q04609 44-750 limits assumed): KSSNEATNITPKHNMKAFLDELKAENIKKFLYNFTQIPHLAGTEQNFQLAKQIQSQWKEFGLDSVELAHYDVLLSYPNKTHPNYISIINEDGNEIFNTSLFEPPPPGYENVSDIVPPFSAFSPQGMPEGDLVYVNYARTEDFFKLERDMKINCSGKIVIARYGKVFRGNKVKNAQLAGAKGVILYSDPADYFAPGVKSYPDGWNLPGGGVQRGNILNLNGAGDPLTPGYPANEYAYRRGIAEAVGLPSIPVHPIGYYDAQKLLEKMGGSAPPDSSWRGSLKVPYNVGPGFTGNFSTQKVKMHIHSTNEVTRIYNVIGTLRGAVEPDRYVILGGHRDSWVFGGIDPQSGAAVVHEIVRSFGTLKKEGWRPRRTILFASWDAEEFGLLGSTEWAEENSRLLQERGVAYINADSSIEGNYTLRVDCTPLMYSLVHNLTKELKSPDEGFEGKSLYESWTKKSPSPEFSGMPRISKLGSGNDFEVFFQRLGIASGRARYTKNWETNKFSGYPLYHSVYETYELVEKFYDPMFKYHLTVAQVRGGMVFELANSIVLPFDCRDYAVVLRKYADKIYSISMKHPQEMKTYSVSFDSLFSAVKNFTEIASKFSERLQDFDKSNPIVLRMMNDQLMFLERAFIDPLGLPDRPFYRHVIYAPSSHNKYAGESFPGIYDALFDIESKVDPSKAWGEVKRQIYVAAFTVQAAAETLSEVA
T1 sequence (Q04609 whole entry): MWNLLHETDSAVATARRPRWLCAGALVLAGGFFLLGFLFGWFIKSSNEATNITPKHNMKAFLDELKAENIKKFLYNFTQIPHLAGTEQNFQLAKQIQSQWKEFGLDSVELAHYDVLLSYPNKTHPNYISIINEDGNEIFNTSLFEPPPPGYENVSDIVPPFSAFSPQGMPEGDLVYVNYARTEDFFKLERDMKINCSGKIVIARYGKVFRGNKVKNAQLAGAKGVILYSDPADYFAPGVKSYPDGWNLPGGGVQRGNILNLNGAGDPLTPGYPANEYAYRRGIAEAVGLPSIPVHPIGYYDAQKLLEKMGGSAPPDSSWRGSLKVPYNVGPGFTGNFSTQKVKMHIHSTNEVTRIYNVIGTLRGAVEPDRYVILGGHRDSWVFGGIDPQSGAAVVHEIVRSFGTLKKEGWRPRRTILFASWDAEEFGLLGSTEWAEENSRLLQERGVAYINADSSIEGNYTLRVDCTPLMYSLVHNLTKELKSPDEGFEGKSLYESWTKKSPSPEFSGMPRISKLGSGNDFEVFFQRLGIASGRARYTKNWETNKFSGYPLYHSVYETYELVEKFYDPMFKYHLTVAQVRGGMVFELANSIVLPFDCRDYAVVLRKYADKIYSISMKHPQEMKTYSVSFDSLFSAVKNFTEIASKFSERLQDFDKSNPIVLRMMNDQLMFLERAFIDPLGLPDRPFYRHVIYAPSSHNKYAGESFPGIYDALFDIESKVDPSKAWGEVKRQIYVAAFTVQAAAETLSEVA

For `CNCCCC[C@@H]1NC(=O)[C@@H](NC(=O)[C@H](Cc2ccc(Cl)cc2)NC(=O)C(C)(C)NC(=O)[C@@H](NC(=O)CC2CCN(C(=O)CN3CCN(CC(=O)O)CCN(CC(=O)O)CCN(CC(=O)O)CC3)CC2)[C@@H](C)O)CSSC[C@@H](C(=O)N[C@H](C(=O)N[C@H](C(N)=O)[C@@H](C)O)C(C)(C)C)NC(=O)[C@H](CC(N)=O)NC(=O)C(C)(C)NC(=O)[C@H](CCCNC(=N)N(C)C)NC1=O` [PSM-0247, DOTA-Cmp-Thr-Aib-Pcf-[Cys-Lys(Me)-RMe2-Aib-Asn-Cys]-Tle-Thr-NH2] ({DOTA}-[X1]T[Aib][Phe(4-Cl)]C[Lys(Me)][Arg(Me2a)][Aib]NC[Tle]T-NH2; disulfide 5-10), the IC50 in assay [1] (setting [3]) is below 200 nM. Besides, the Kd in assay [2] (setting [4]) is below 12.6 nM.

Regarding `CCCC[C@H](NC(=O)[C@@H]1CSSC[C@H](NC(=O)[C@H](Cc2ccccc2)NC(=O)[C@H](C)NC(=O)[C@@H](NC(C)=O)[C@@H](C)O)C(=O)N[C@@H](C)C(=O)N[C@@H](CCCNC(=N)N)C(=O)N[C@@H](C)C(=O)N[C@@H](CC(N)=O)C(=O)N1)C(=O)N[C@H](C(=O)N[C@@H](CC(=O)O)C(N)=O)[C@@H](C)O` [PSM-0475, Ac-Thr-Ala-Phe-[Cys-Ala-Arg-Ala-Ass-Cys]-Nle-Thr-Asp-NH2] (Ac-TAFCARANC[Nle]TD-NH2; disulfide 4-9), the IC50 in assay [1] (pIC50 category of FACS binding) is 1260 to 3160 nM. Besides, in assay [2] (pKD category for PSMA SPR activity assay, hPSMA-Fc, 25° C.), the Kd was above 501 nM.

As to `CCCC[C@@H]1NC(=O)[C@@H](NC(=O)[C@H](Cc2ccc(Cl)cc2)NC(=O)C(C)(C)NC(=O)[C@@H](NC(C)=O)[C@@H](C)O)CSSC[C@@H](C(=O)N[C@H](C(=O)N[C@H](C(N)=O)[C@@H](C)O)C(C)(C)C)NC(=O)[C@H](CC(N)=O)NC(=O)C(C)(C)NC(=O)[C@H](CCCNC(=N)N)NC1=O` [PSM-0205, Ac-Thr-Aib-Pcf-[Cys-Nle-Arg-Aib-Asn-Cys]-Tle-Thr-NH2] (Ac-T[Aib][Phe(4-Cl)]C[Nle]R[Aib]NC[Tle]T-NH2; disulfide 4-9), in assay [1] (setting [3]), the IC50 is below 200 nM. In addition, the Kd in assay [2] (setting [4]) was below 12.6 nM.

Take `CC(=O)N[C@H](C(=O)NC(C)(C)C(=O)N[C@@H](Cc1ccccc1)C(=O)N[C@H]1CSSC[C@@H](C(=O)N[C@H](C(N)=O)C(C)(C)C)NC(=O)[C@H](CC(N)=O)NC(=O)C(C)(C)NC(=O)[C@H](CCCNC(=N)N)NC(=O)[C@H](CCCCN)NC1=O)[C@@H](C)O` [PSM-0230, Ac-Thr-Aib-Phe-[Cys-Lys-Arg-Aib-Asn-Cys]-Tle-NH2] (Ac-T[Aib]FCKR[Aib]NC[Tle]-NH2; disulfide 4-9): the IC50 in assay [1] (setting [3]) was below 200 nM. In addition, the Kd in assay [2] (setting [4]) is below 12.6 nM.

With `C[C@@H](O)[C@H](NC(=O)CN1CCN(CC(=O)O)CCN(CC(=O)O)CCN(CC(=O)O)CC1)C(=O)NC(C)(C)C(=O)N[C@@H](Cc1ccc(Cl)cc1)C(=O)N[C@H]1CSSC[C@@H](C(=O)N[C@H](C(=O)NCCN)C(C)(C)C)NC(=O)[C@H](CC(N)=O)NC(=O)C(C)(C)NC(=O)[C@H](CCCNC(=N)N)NC(=O)[C@H](CCCCN)NC1=O` [PSM-0222, DOTA-Thr-Aib-Pcf-[Cys-Lys-Arg-Aib-Asn-Cys]-Tle-en] ({DOTA}-T[Aib][Phe(4-Cl)]CKR[Aib]NC[Tle]-Ethylenediamine; disulfide 4-9), the IC50 in assay [1] (setting [3]) was below 200 nM. Also, the Kd in assay [2] (setting [4]) is below 12.6 nM.

Turning to `CCC(CC)(NC(=O)[C@@H](NC(C)=O)[C@@H](C)O)C(=O)N[C@@H](Cc1ccccc1)C(=O)N[C@H]1CSSC[C@@H](C(=O)N[C@H](C(=O)N[C@H](C(N)=O)[C@@H](C)O)C(C)(C)C)NC(=O)[C@H](CC(N)=O)NC(=O)C(C)(C)NC(=O)[C@H](CCCNC(=N)N)NC(=O)[C@H](CCCCN)NC1=O` [PSM-0187, Ac-Thr-Deg-Phe-[Cys-Lys-Arg-Aib-Asn-Cys]-Tle-Thr-NH2] (Ac-T[Deg]FCKR[Aib]NC[Tle]T-NH2; disulfide 4-9), the IC50 in assay [1] (setting [3]) is below 200 nM. Also, in assay [2] (setting [4]), the Kd was below 12.6 nM.

`CCCC[C@H](NC(=O)[C@@H]1CSSC[C@H](NC(=O)[C@H](Cc2ccccc2)NC(=O)[C@H](C)NC(=O)[C@@H](NC(C)=O)[C@@H](C)O)C(=O)N[C@@H](CCCCN)C(=O)N[C@@H](CCCNC(=N)N)C(=O)NC(C)(C)C(=O)N[C@@H](CC(N)=O)C(=O)N1)C(=O)N[C@H](C(=O)N[C@@H](CC(=O)O)C(N)=O)[C@@H](C)O` [PSM-0578, Ac-Thr-Ala-Phe-[Cys-Lys-Arg-Aib-Asn-Cys]-Nle-Thr-Asp-NH2] (Ac-TAFCKR[Aib]NC[Nle]TD-NH2; disulfide 4-9): in assay [1] (FACS binding, category), the IC50 was below 200 nM. In assay [2] (PSMA SPR assay, category), the Kd is 12.6 to 126 nM.

(Values after patent US20260083865A1, “PROSTATE SPECIFIC MEMBRANE ANTIGEN (PSMA) LIGANDS AND USE THEREOF” (priority 2022, published 2026).)
